Source: patent US8431530B2, “Compositions and methods for treating aids or cancer by inhibiting the secretion of microparticles” (priority 2009, dated 2013)

Assays:
[1] = system: NefGFP release from HEK293 cells; assay: Nef-GFP co-transfection secretion assay, GFP fluorescence of supernatant; type: cell-based; details: HEK293, 0.5 μg Nef-GFP + 0.5 μg peptide, Chariot, 48 h; relative to NefGFP+sM1 (100%)
Experimental: Therefore, a set of co-transfection experiments were performed. HEK293 cells were co-transfected with 0.5 μg of pQBI-HIV Nef-GFP (expresses wild type Nef protein) and either 0.5 μg of HIV-1 Nef SMRwt or SMRmut peptide or sM1 peptide (a totally random control peptide, ALAETCQNAWA (SEQ ID NO: 7)) with Chariot. Briefly, the wild-type Nef-GFP clone and the SMR peptides were complexed with Chariot reagent for 30 minutes at RT. The DNA/peptide/Chariot complex was added to HEK293 cells in serum-free media, and the cells were plated. Following incubation for 2 hours at 37° C., media with serum was added to the dish, and the cells were incubated at 37° C. for 48 h. The media was then collected and assayed for secretion using a spectrofluorimeter. The conditioned supernatants from these cultures were assayed for GFP fluorescence by plate reader.

R7 in Jurkat cells = assay: p24 ELISA of supernatant after R7 co-transfection; type: cell-based, HIV
Experimental: Jurkat cells, HEK293 cells, THP-1 monocytes and U937 monocytes were co-transfected with either R7 […] Nef SMR wt (antagonist) or with R7+Nef SMR mt (nonfunctional antagonist) by Chariot™ Kit. The transfection efficiency was 30-40%.
(§1) R7 is a clone containing the viral genome. Transfection into cells allows expression of the viral genome and ultimately virion formation and release. The amount of virion production in the extracellular supernatant is measured through p24 protein (viral protein).
At 2 hours, 3 days, 6 days, 9 days, 13 days, 15 days, 17 days, 20 days, 23 days, 27 days and 36 days post-transfection, 0.5 ml supernatant were collected from each plate, mixed with 0.5 ml fresh media and analyzed by p24 ELISA assay. 1.5 ml of supernatant were collected from each plate and spun in a TLA100 rotor at 400,000×g for 1 hour to create the pellets. The pellets were used for Western blot analysis with p24 mAb and Nef mAb.

pNL4-3 in 293 cells = assay: p24 assay of virion production after pNL4-3 co-transfection; type: cell-based, HIV; details: for p24: co-transfected with pNL4-3; for Effect (a/b): p24 of sample / p24 of pNL4-3 + sM1
Experimental: as §1, with “pNL4-3” for “R7”, “protein). Samples were collected at 48 hours and 96 hours post-infection.” for “protein).”
At 48 hr postinfection two plates in each group were removed and analyzed by: • a. p24 assay • b. Nef assay • c. Infectivity assay • At 96 hr postinfection the other two plates in each group were removed and analyzed by: • a. p24 assay • b. Nef assay • c. Infectivity assay

[2] = system: HIV-1 Nef-GFP secretion, cell line H; assay: HIV-1 Nef-GFP induced secretion, fluorescent plate reader assay; type: cell-based; details: for SMRmt/SMRwt ratio of secretion: HIV-1 Nef-GFP; for Increase in Secretion (relative to untransfected cells), exp condition/UT: HIV-1 Nef-GFP (sM1 column head prints GFP/sM1)
[3] = system: Gag-GFP + HIV-1wtNef-RFP secretion, THP-1 Monocyte; assay: Gag-GFP secretion in presence of wtNef-RFP, fluorescent plate reader assay; type: cell-based; details: Gag-GFP + HIV-1wtNef-RFP + peptide, 48 hours
Experimental: (§2) Cells were transfected with the pQBI-HIV Gag-GFP construct, wtNef-RFP, and either the antagonist (SMRwt peptide), the negative control SMRmt peptide, or a random peptide sM1 with Chariot for 48 hours. The conditioned supernatants from these cultures were assayed for GFP fluorescence by plate reader.

[4] = system: Gag-GFP + HIV-1wtNef-RFP secretion, Jurkat; assay: as above; type: cell-based; details: for Secretion relative to untransfected cells: Jurkat, Gag-GFP + HIV-1wtNef-RFP + peptide, 48 hours
Experimental: as §2

R7; Magi/CXCR4 cells = assay: Magi assay of viral infectivity, supernatants of Jurkat cells; type: cell-based, HIV; details: for blue staining (productively infected) Magi/CXCR4 cells: 48 hour conditioned supernatant of Jurkat cells transfected with R7 and peptide, X-Gal
Experimental: Magi/CXCR4 cells were exposed to 48 hour conditioned supernatants from Jurkat cells, HEK293 cells, THP-1 monocytes, or U937 monocytes transfected with either R7 viral DNA/SMRwt peptide or R7 viral DNA/SMRmt peptide. These cells were then fixed and stained with X-Gal. […] Cells productively infected with R7 are easily visualized under light microscopy by their blue nuclear staining. Magnification ×20. […] This is indicative of virus in the conditioned supernatant from the R7/negative control peptide treated cells and no virus in conditioned supernatant from the R7/antagonist treated cells.
These Magi cultures were quantitated for blue staining cells. The data was plotted as a function of time post-transfection. […] This is possibly due to antagonism of trafficking of viral component(s) to the cytoplasmic membrane. Ultimately this would shutdown the HIV infection and block progression to AIDS.

H-VGFPVAAVGFPVDYKDDDDK-OH [SMRwt] was tested. Which “release of NefGFP into the extracellular supernatant (GFP fluorescence)” value [1] did it give?
The value was “antagonizes the release of NefGFP into the extracellular supernatant”.

What about the “time post transfection at which p24 concentration increased” value (R7 in Jurkat cells) of the same substance?
The value was 13 days.

What about the p24 (pNL4-3 in 293 cells; 293, 48 hr) of the same substance?
The p24 was 90 pg/mL.

And the “Effect (a/b)” value (pNL4-3 in 293 cells; 293, 48 hr)?
The value was 2.

What about the p24 (pNL4-3 in 293 cells; 293, 96 hr) of the same substance?
Its p24 is 345 pg/mL.

What about the “Effect (a/b)” value (pNL4-3 in 293 cells; 293, 96 hr) of the same substance?
Its value is 0.359.

And the “SMRmt/SMRwt ratio of secretion” value [2]?
The value was 1.0y.

And the “Increase in Secretion (relative to untransfected cells), exp condition/UT” value [2]?
The value was 2.3x.

And the “Secretion relative to untransfected cells” value ([3]; first line)?
Its value is 0.95x.

And the “Secretion relative to untransfected cells” value ([3]; second line (not explained))?
The value was 0.91x.

And the “release of Gag virus-like particles in the presence of wtNef-RFP (in words, Table III)” value ([4]; Jurkat and THP-1, Gag-GFP + wtNef-RFP)?
The value was “blocks release of Gag virus-like particles”.

What about the “Secretion relative to untransfected cells” value ([4]; first line) of the same substance?
Its value is 1.3x.

What about the “Secretion relative to untransfected cells” value ([4]; second line (not explained)) of the same substance?
Its value is 1.16x.

What about the “blue staining (productively infected) Magi/CXCR4 cells” value (R7; Magi/CXCR4 cells) of the same substance?
The value was “drastically reduced numbers of blue staining cells”.

What about the “numbers of infected Magi cells as a function of time post-transfection” value (R7; Magi/CXCR4 cells; supernatant from transfected Jurkat cells) of the same substance?
Its value is “significantly reduced”.

Which results are given for “H2N-AGFPVAAAGFPVDYKDDDDK-OH (H-AGFPVAAAGFPVDYKDDDDK-OH) [SMRmt]”?
release of NefGFP into the extracellular supernatant (GFP fluorescence) [1]: no effect; time post transfection at which p24 concentration increased (R7 in Jurkat cells): 3 days; p24 (pNL4-3 in 293 cells; 293, 48 hr): 30 pg/mL; Effect (a/b) (pNL4-3 in 293 cells; 293, 48 hr): 0.67; p24 (pNL4-3 in 293 cells; 293, 96 hr): 1125 pg/mL; Effect (a/b) (pNL4-3 in 293 cells; 293, 96 hr): 1.17; SMRmt/SMRwt ratio of secretion [2]: 24.8y; Increase in Secretion (relative to untransfected cells), exp condition/UT [2]: 57.04x; Secretion relative to untransfected cells ([3]; first line): 49.27x; Secretion relative to untransfected cells ([3]; second line (not explained)): 22.24x; Secretion relative to untransfected cells ([4]; first line): 55.73x; Secretion relative to untransfected cells ([4]; second line (not explained)): 43.51x; blue staining (productively infected) Magi/CXCR4 cells (R7; Magi/CXCR4 cells): many blue staining cells
